From paper PMC4199632, “Exploring the Anti-Cancer Activity of Novel Thiosemicarbazones Generated through the Combination of Retro-Fragments: Dissection of Critical Structure-Activity Relationships” (PLoS ONE, 2014) come the findings set out here.

Each structure is given as a SMILES string.

Assay [1] has as its system HCT116 p53+/+ colon cancer cells. Kind of assay: Proliferation assay (MTS, 96 h). In kind it is cell-based, human. The conditions noted are these: Homo sapiens, HCT-116; 96 h incubation, MTS; mean ±SD (3 experiments). Here is the method:
(§1) The human cancer cell types (neuroepithelioma (SK-N-MC), colon cancer (HCT116 with wild-type p53 (p53^+/+)), Burkitt's lymphoma (Raji) and cervical carcinoma (HeLa)) cells and normal human dermal fibroblasts (NHDF) were obtained from the American Type Culture Collection (ATCC, Manassas, VA, USA). HCT116 null p53 (p53^−/−) cells were obtained from the Maria Sklodowska-Curie Memorial Cancer Center and Institute of Oncology, Poland.
(§2) The SK-N-MC cells were cultured in minimum essential medium (MEM; Life Technologies, Grand Island, New York, USA) containing 10% (v/v) fetal bovine serum (FBS; Life Technologies), 1 mM sodium pyruvate (Life Technologies), 1% (v/v) non-essential amino acids (Life Technologies), 2 mM L-glutamine (Life Technologies), 100 U/mL penicillin (Life Technologies), 100 µg/mL streptomycin (Life Technologies) and 0.28 µg/mL fungizone (Bristol Myers Squibb Pharmaceuticals, Montreal, Canada). The HCT116 and NHDF cells were grown in Dulbecco's modified Eagle's medium (DMEM; Sigma-Aldrich) supplemented with 12% (v/v) heat-inactivated FBS (HCT116; Life Technologies) or 15% (v/v) FBS (NHDF; Life Technologies), 100 µg/mL of gentamicin (Polfa Warszawa S.A., Warsaw, Poland), 100 µg/mL of streptomycin (Polfa) and 100 U/mL of penicillin (Polfa). The Raji and HeLa cells were cultured in Roswell Park Memorial Institute medium (RPMI-1640; Sigma-Aldrich) with the addition of 10% (v/v) heat-inactivated FBS (Life Technologies) and the supplements described for SK-N-MC cells above. All cell lines were cultured under standard conditions at 37°C in a humidified atmosphere at 5% CO2 and were subcultured every 3–4 days as required.
(§3) The cells were seeded in 96-well plates (SK-N-MC: 1.5×10^4 cells/well; HeLa: 5.0×10^3 cells/well; Raji: 3.0×10^3 cells/well; HCT116: 3.5×10^3 cells/well; NHDF: 3.0×10^3 cells/well) 24 h prior to the addition of the novel compounds. The assays were performed using a 72 h (SK-N-MC, Raji, HeLa) or 96 h (HCT 116, NHDF) incubation period with the agents at 37°C. […] Additionally, DFO and Dp44mT were included as positive controls in all experiments as their activity is well characterized, [42], [50].
(§4) Chelator stock solutions were prepared in DMSO and diluted in media so that the final [DMSO] <0.05%. The results were expressed as a percentage of the control and the resulting IC50 values were calculated using GraphPad Prism 5 (GraphPad Software, Inc., La Jolla, CA, USA). The IC50 was defined as the concentration necessary to reduce the absorbance to 50% of the untreated control. Each individual compound was tested in triplicate in a single experiment, with each experiment being repeated three times. After incubation of HCT 116 and NHDF cells with the tested compounds, 20 µL of the CellTiter 96 Aqueous One Solution - MTS (Promega, Madison, WI, USA) solution was added to each well (with 100 µL of DMEM without phenol red) and incubated for 1 h/37°C. The optical density of the samples was analyzed at 490 nm.

The subject of assay [2] is HCT116 p53−/− colon cancer cells. Kind of assay: Proliferation assay (MTS, 96 h). In kind it is cell-based, human. Particulars: 96 h incubation, MTS, mean ±SD (3 experiments). Here is the method: as §1, §2, §3, §4
The subject of assay [3] is Raji Burkitt's lymphoma cells. Kind of assay: Proliferation assay (MTT, 72 h). In kind it is cell-based. Particulars: Homo sapiens, 72 h incubation, mean ±SD (3 experiments). Here is the method: as §1, §2, §3, §4
(§5) MTT (3-[4,5-dimethylthiazol-2-yl]-2,5-diphenyltetrazolium bromide) was used to evaluate the anti-proliferative effects of the chelators in SK-N-MC and Raji cells. Following incubation with the investigated compounds, 10 µL of MTT (5 mg/mL in PBS; Sigma-Aldrich) was added to each well. After a 2 h (SK-N-MC) or 4 h (Raji) incubation, the plates were centrifuged, and the cells were lysed with 100 µL of 10% SDS-50% isobutanol in 0.01 M HCl (SK-N-MC) or DMSO (Raji). The absorbance was measured at 570 nm. The anti-proliferative effects of these novel agents on HeLa cells were estimated using crystal violet staining (0.5% crystal violet solution for 10 min). Finally, the wells were rinsed with water and the cells were lysed with 2% SDS. The optical density of the samples was analyzed at 595 nm.

Assay [4] deals with SK-N-MC neuroepithelioma cells. Kind of assay: Proliferation assay (MTT, 72 h). The conditions noted are these: Homo sapiens, 72 h incubation, mean ±SD (3 experiments). In kind it is cell-based. The method, then: as §1, §2, §3, §4, §5
In assay [5] the test system is HeLa cervical carcinoma cells. The assay can be described thus: Proliferation assay (crystal violet, 72 h). In kind it is cell-based. Particulars: Homo sapiens, 72 h incubation, mean ±SD (3 experiments). The method, then: as §1, §2, §3, §4, §5
Assay [6] relates to normal human dermal fibroblast (NHDF) cells. Kind of assay: Proliferation assay (MTS, 96 h), normal mortal cells. The conditions noted are these: Homo sapiens, NHDF, 96 h, 96 h incubation, mean ±SD (3 experiments). In kind it is cell-based. Here is the method:
as §1, §2, §3, §4

Assay [7] has as its system HCT116 p53+/+, HCT116 p53−/−, Raji, HeLa, SK-N-MC and NHDF cells. Kind of assay: Proliferation assay, ranges stated over several cell-types. In kind it is cell-based, human. The conditions noted are these: comparison of IC50 in HCT116 p53+/+ and p53−/− cells. Here is the method:
as §1, §2, §3, §4, §5

In a further assay the test system is SK-N-MC cells. The assay can be described thus: Inhibition of cellular 59Fe uptake from 59Fe2-Tf. In kind it is cell-based, human. Particulars: chelator 25 µM, 59Fe2-Tf 0.75 µM, 3 h/37°C. Here is the method: The iron transport protein, Tf (Sigma-Aldrich), was labeled with ^59Fe (PerkinElmer Life and Analytical Sciences, Boston, MA) to form ^59Fe2-Tf using standard methods, [7]. Unbound ^59Fe was removed by passage through a Sephadex G25 column and was followed by exhaustive dialysis, [7].
The ability of the chelators to prevent the cellular uptake of ^59Fe from ^59Fe2-Tf was examined using standard methods, [14], [17], [18], [50]. A monolayer of SK-N-MC cells was incubated with medium containing ^59Fe2-Tf (0.75 µM) and the chelator (25 µM) for 3 h at 37°C. The medium was then removed and the cells were washed four times with ice-cold PBS. The cells were then incubated for 30 min at 4°C with the general protease, Pronase (1 mg/mL; Sigma-Aldrich), to remove membrane-bound ^59Fe. The cells were removed using a plastic spatula and centrifuged at 14,000 rpm/1 min to separate internalized from membrane-bound ^59Fe. The cell pellet was resuspended in 1 mL of PBS and the internalized ^59Fe was measured on a γ-scintillation counter. Internalized ^59Fe uptake was calculated as a percentage of the control (medium alone). Again, the novel ligands were compared to DFO and Dp44mT as their ability to inhibit cellular ^59Fe uptake has been extensively characterized using SK-N-MC cells, [14], [17], [18], [50].
Figure 8 Effect of (A) series 1, (B) series 2, (C) series 3, (D) series 4, (E) series 5 and (F) series 6 chelators, relative to the controls DFO and Dp44mT, on ^59Fe uptake from ^59Fe-transferrin by SK-N-MC cells. Cells were incubated for 3 h/37°C with ^59Fe-transferrin (0.75 µM) in the presence or absence of the chelators (25 µM). At the end of this incubation, cells were washed 4 times with ice-cold PBS. Internalization of ^59Fe was assessed by incubation for 30 min/4°C with the protease, Pronase (1 mg/mL). Cellular ^59Fe was then assessed using a γ-scintillation counter. Results are mean ±SD (3 experiments).

The nature of assay [8]: Ascorbate oxidation assay (iron complexes). In kind it is biochemical. Particulars: iron complex, IBE 3. The method, then:
The ability of the iron complexes of the novel ligands to mediate the oxidation of the physiological substrate, ascorbate, was examined using established methods, [18], [22], [52], [53]. Ascorbic acid (100 µM) was prepared immediately prior to each experiment and was incubated in the presence of Fe^III (10 µM; as FeCl3), the chelator (1–60 µM) and a 50-fold molar excess of citrate (500 µM). The absorbance at 265 nm was measured after 10 and 40 min and the difference in absorbance at these time points was calculated. The results of these experiments were expressed as iron-binding equivalents (IBE) due to the different denticity of the chelators examined. The chelators, Dp44mT, DFO and ethylenediaminetetraacetic acid (EDTA) were used as controls as the ability of their iron complexes to oxidize ascorbate has been extensively characterized, [15], [52], [53].
The ability of the iron complexes of the novel TSCs to catalyze the oxidation of the physiological substrate, ascorbate, was important to assess as redox cycling may play a critical role in their anti-proliferative activity, [15], [18], [52], [53]. Thus, the oxidation of ascorbate mediated by the iron complexes of series 1–6 were examined in comparison to the iron complexes of the control compounds, DFO, EDTA and Dp44mT, as the ability of the latter to oxidize ascorbate is well characterized, [15], [52], [53], [68]. The results were expressed as a percentage of the control (no chelator) at iron-binding equivalents (IBEs) of 0.1 (excess “free” iron), 1 (iron-chelator complexes with a fully filled coordination sphere), or 3 (excess free chelator), due to the different denticity of the chelators examined (Fig. 10).
Figure 10 Effect of the iron complexes of (A) series 1, (B) series 2, (C) series 3, (D) series 4, (E) series 5 and (F) series 6 chelators, relative to DFO, Dp44mT and EDTA, on ascorbate oxidation. Chelators at iron-binding equivalent (IBE) ratios of 0.1, 1, and 3 were incubated in the presence of Fe^III (10 µM) and ascorbate (100 µM). The UV-Vis absorbance at 265 nm was recorded after 10 and 40 min, and the difference between the time points was calculated. Results are mean ±SD (3 experiments).

In the case of `Oc1cccc2ccc(/C=N/NC(=S)N3CCN(c4cnccn4)CC3)nc12` [3e], the IC50 was 0.05 ± 0.03 µM in [1]; 5.01 ± 2.55 µM in assay [2]; 5 µM in assay [2] (Homo sapiens, HCT-116, 96 h); 0.04 ± 0.02 µM in assay [3]; over 6.25 µM in assay [4]; 2.39 ± 0.02 µM in assay [5]. Besides, the IC50 in assay [6] was 12.1 ± 3.6 µM. The “Decrease in anti-proliferative efficacy, HCT116 p53+/+ vs HCT116 p53−/−” value in assay [7] is listed as 100 fold.
For the compound `CN(C(=S)N/N=C/c1ccc2cccc(O)c2n1)C1CCCCC1` [3f], the IC50 in [1] is 3.11 ± 1.92 µM; in assay [2] (Homo sapiens, HCT-116, 96 h), 4.35 ± 1.35 µM; in assay [3], 0.01 µM; in [4], over 6.25 µM; in [5], 2.57 ± 0.46 µM; in [6], 5.36 ± 1.99 µM. In the assay on SK-N-MC cells, the “Internalized 59Fe uptake from 59Fe2-Tf (% of the control)” value is reported as 3.6–11.5%.
As for `CCN1CCN(C(=S)N/N=C/c2ccccc2O)CC1` [6a], the IC50 in [1] was over 25 µM; in assay [2] (Homo sapiens, HCT-116, 96 h), over 25 µM; in [3], 10.2 ± 6.6 µM; in assay [4], over 6.25 µM; in assay [5], 22.1 ± 5.4 µM; in [6], over 25 µM. Further, in assay [8], the “Ascorbate oxidation compared with controls” value was “decreased ascorbate oxidation relative to the control”.
Regarding `Oc1ccccc1/C=N/NC(=S)N1CCN(c2ccccn2)CC1` [6d], the IC50 in assay [1] worked out at 9.7 ± 2.5 µM; in [2] (Homo sapiens, HCT-116, 96 h) it was 10.6 ± 1.2 µM; in assay [3], 2.6 ± 0.33 µM; in assay [4], 5.42 ± 0.64 µM; in assay [5] it was 16.4 ± 4.5 µM; in [6], 18.4 ± 1.9 µM. Also, in assay [8], the “Ascorbate oxidation compared with controls” value was “decreased ascorbate oxidation relative to the control”.

As usually defined, the IC50 is the midpoint of a concentration-inhibition curve. Lower therefore signals greater potency.
